{
  "source": "the NIST ThermoML archive (doi:10.1016/j.fluid.2008.02.007)",
  "settings": "Crystal; visual observation",
  "note": "Numbers after ± are expanded uncertainties.",
  "data": [
    {"smiles": "O=C(O)c1ccc([N+](=O)[O-])cc1", "note": "[4-nitrobenzoic acid]", "values": [
      {"measurement": "Normal melting temperature", "value": "240 ± 0.5", "unit": "°C"}
    ]},
    {"smiles": "O=C(O)c1ccccc1[N+](=O)[O-]", "note": "[2-nitrobenzoic acid]", "values": [
      {"measurement": "Normal melting temperature", "value": "147.7 ± 0.5", "unit": "°C"}
    ]}
  ]
}
